Reference: ChEMBL document CHEMBL3352801, “Synthesis and lipid-lowering evaluation of 3-methyl-1H-purine-2,6-dione derivatives as potent and orally available anti-obesity agents” (Eur J Med Chem, 2014)
Activity calls are given as the source filed them. No cut-off for these calls is given here.

Columns and labels:
[1] = system: 3T3-L1; test: Inhibition of triglyceride accumulation in mouse 3T3L1 cells at 10 uM after 24 hrs; format: functional
[2] = system: Mus musculus; test: Antiobesity activity in diet-induced obese C57Bl/6 mouse assessed as reduction in fasting blood glucose compound dosed po for 4 weeks with high-fat diet; format: functional, organism-based
[3] = system: Mus musculus; test: Antiobesity activity in diet-induced obese C57Bl/6 mouse assessed as reduction in HOMA-IR value compound dosed po for 4 weeks with high-fat diet; format: functional, organism-based
[4] = system: Mus musculus; test: Antiobesity activity in diet-induced obese C57Bl/6 mouse assessed as increase in HDL level compound dosed po for 4 weeks with high-fat diet; format: functional, organism-based
[5] = system: Mus musculus; test: Increase in glucose tolerance in diet-induced obese C57Bl/6 mouse at 20 mg/kg/day, po for 4 weeks by oral glucose tolerance test; format: functional, organism-based
[6] = system: Mus musculus; test: Decrease in insulin resistance in diet-induced obese C57Bl/6 mouse assessed as induction of insulin secretion at 50 mg/kg/day, po for 4 weeks by insulin tolerance test; format: functional, organism-based
[7] = system: Mus musculus; test: Antiobesity activity in diet-induced obese C57Bl/6 mouse assessed as change in insulin level compound dosed po for 4 weeks with high-fat diet; format: functional, organism-based
[8] = system: Mus musculus; test: Antiobesity activity in diet-induced obese C57Bl/6 mouse assessed as reduction in fat accumulation in liver at 20 to 50 mg/kg/day, po for 4 weeks administered with high-fat diet by Oil Red O staining-based histological method; format: functional, organism-based
[9] = system: Mus musculus; test: Antiobesity activity in diet-induced obese C57Bl/6 mouse assessed as alteration of adipose tissue morphology at 20 to 50 mg/kg/day, po for 4 weeks administered with high-fat diet by Oil Red O staining-based histological method; format: functional, organism-based
[10] = system: Mus musculus; test: Increase in glucose tolerance in po dosed diet-induced obese C57Bl/6 mouse by oral glucose tolerance test; format: functional, organism-based
[11] = system: Mus musculus; test: Antiobesity activity in diet-induced obese C57Bl/6 mouse assessed as reduction in LDL level compound dosed po for 4 weeks with high-fat diet; format: functional, organism-based
[12] = system: Mus musculus; test: Antiobesity activity in diet-induced obese C57Bl/6 mouse assessed as reduction in size of fat cells at 20 mg/kg/day, po for 4 weeks administered with high-fat diet by Oil Red O staining-based histological method; format: functional, organism-based
[13] = system: Mus musculus; test: Antiobesity activity in diet-induced obese C57Bl/6 mouse assessed as normal liver morphology and histology at 50 mg/kg/day, po for 4 weeks administered with high-fat diet by Oil Red O staining-based histological method; format: functional, organism-based
[14] = system: Mus musculus; test: Increase in glucose tolerance in diet-induced obese C57Bl/6 mouse at 50 mg/kg/day, po for 4 weeks by oral glucose tolerance test; format: functional, organism-based
[15] = system: Mus musculus; test: Antiobesity activity in diet-induced obese C57Bl/6 mouse assessed as reduction in lipid droplets in liver at 50 mg/kg/day, po for 4 weeks administered with high-fat diet by Oil Red O staining-based histological method; format: functional, organism-based
[16] = system: Mus musculus; test: Antiobesity activity in diet-induced obese C57Bl/6 mouse assessed as reduction in triglyceride level compound dosed po for 4 weeks with high-fat diet; format: functional, organism-based
[17] = system: Mus musculus; test: Decrease in insulin resistance in po dosed diet-induced obese C57Bl/6 mouse assessed as induction of insulin secretion by insulin tolerance test; format: functional, organism-based
[18] = system: Mus musculus; test: Decrease in insulin resistance in diet-induced obese C57Bl/6 mouse assessed as induction of insulin secretion at 20 mg/kg, po as single dose by insulin tolerance test; format: functional, organism-based; set-up: dose 20 mg/kg
[19] = system: Mus musculus; test: Increase in glucose tolerance in diet-induced obese C57Bl/6 mouse at 20 mg/kg, po as single dose by oral glucose tolerance test; format: functional, organism-based; set-up: dose 20 mg/kg
[20] = system: Mus musculus; test: Antiobesity activity in diet-induced obese C57Bl/6 mouse assessed as reduction in FFA level compound dosed po for 4 weeks with high-fat diet; format: functional, organism-based
[21] = system: Mus musculus; test: Antiobesity activity in diet-induced obese C57Bl/6 mouse assessed as reduction in fat accumulation in liver at 50 mg/kg/day, po for 4 weeks administered with high-fat diet by Oil Red O staining-based histological method; format: functional, organism-based
[22] = system: Mus musculus; test: Decrease in insulin resistance in diet-induced obese C57Bl/6 mouse assessed as induction of insulin secretion at 20 mg/kg/day, po for 4 weeks by insulin tolerance test; format: functional, organism-based

Structure (SMILES): C=CCn1c(=O)c2[nH]c(-c3ccc(OCCN(C)c4ccccn4)cc3)nc2n(C)c1=O
- inhibition [1]: inactive

Structure (SMILES): CCOC(=O)Cn1c(-c2ccc(OCCN(C)c3ccccn3)cc2)nc2c1c(=O)n(Cc1ccccc1C#N)c(=O)n2C
- inhibition [1]: inactive

Structure (SMILES): CCCCCn1c(-c2ccc(OCCN(C)c3ccccn3)cc2)nc2c1c(=O)n(Cc1ccccc1C#N)c(=O)n2C
- inhibition [1]: inactive

Structure (SMILES): CN(CCOc1ccc(-c2nc3c(c(=O)n(Cc4ccccc4C#N)c(=O)n3C)n2CCCC(=O)O)cc1)c1ccccn1
- inhibition [1]: inactive

Structure (SMILES): CCn1c(=O)c2c(nc(-c3ccc(OCCN(C)c4ccccn4)cc3)n2CC)n(C)c1=O
- inhibition [1]: inactive

Structure (SMILES): CCOC(=O)CCCn1c(=O)c2c(nc(-c3ccc(OCCN(C)c4ccccn4)cc3)n2COC(=O)C(C)(C)C)n(C)c1=O
- inhibition [1]: inactive

Structure (SMILES): CN(CCOc1ccc(-c2nc3c(c(=O)[nH]c(=O)n3C)n2COC(=O)C(C)(C)C)cc1)c1ccccn1
- inhibition [1]: Active

Structure (SMILES): C=CCn1c(-c2ccc(OCCN(C)c3ccccn3)cc2)nc2c1c(=O)n(Cc1ccc(F)cc1)c(=O)n2C
- inhibition [1]: inactive

Structure (SMILES): CN(CCOc1ccc(-c2nc3c([nH]2)c(=O)n(CCCC(=O)O)c(=O)n3C)cc1)c1ccccn1
- inhibition [1]: inactive

Structure (SMILES): CCCn1c(=O)c2c(nc(-c3ccc(OCCN(C)c4ccccn4)cc3)n2CCC)n(C)c1=O
- inhibition [1]: inactive

Structure (SMILES): CCn1c(-c2ccc(OCCN(C)c3ccccn3)cc2)nc2c1c(=O)n(Cc1ccc(F)cc1)c(=O)n2C
- inhibition [1]: inactive

Structure (SMILES): C=CCn1c(=O)c2c(nc(-c3ccc(OCCN(C)c4ccccn4)cc3)n2CC=C)n(C)c1=O
- inhibition [1]: inactive

Structure (SMILES): CCn1c(-c2ccc(OCCN(C)c3ccccn3)cc2)nc2c1c(=O)n(Cc1ccccc1C#N)c(=O)n2C
- Activity [2]: Dose-dependent effect
- Activity [3]: Dose-dependent effect
- Activity [4]: Dose-dependent effect
- Activity [5]: Active
- Activity [6]: Active
- Activity [7]: Dose-dependent effect
- Activity [8]: Active
- Activity [9]: Active
- Activity [10]: Dose-dependent effect
- Activity [11]: Dose-dependent effect
- Activity [12]: Active
- Activity [13]: Active
- Activity [14]: Active
- Activity [15]: Active
- Activity [16]: Dose-dependent effect
- Activity [17]: Dose-dependent effect
- Activity [18]: Active
- Activity [19]: Active
- Activity [20]: Dose-dependent effect
- Activity [21]: Active
- Activity [22]: Active

Structure (SMILES): CN(CCOc1ccc(-c2nc3c(c(=O)n(Cc4ccccc4C#N)c(=O)n3C)n2CCO)cc1)c1ccccn1
- inhibition [1]: Active

Structure (SMILES): CCCCn1c(-c2ccc(OCCN(C)c3ccccn3)cc2)nc2c1c(=O)n(Cc1ccccc1C#N)c(=O)n2C
- inhibition [1]: Active
